This is an account of results in patent US20250221966A1, “RXFP1 AGONISTS” (BRISTOL-MYERS SQUIBB COMPANY, priority 2021, published 2025).

This assay has as its target T1, human RXFP1 (Homo sapiens, UniProt Q9HBX9).
T1 construct: expressed in transfected cells
T1 sequence (Q9HBX9 1-757): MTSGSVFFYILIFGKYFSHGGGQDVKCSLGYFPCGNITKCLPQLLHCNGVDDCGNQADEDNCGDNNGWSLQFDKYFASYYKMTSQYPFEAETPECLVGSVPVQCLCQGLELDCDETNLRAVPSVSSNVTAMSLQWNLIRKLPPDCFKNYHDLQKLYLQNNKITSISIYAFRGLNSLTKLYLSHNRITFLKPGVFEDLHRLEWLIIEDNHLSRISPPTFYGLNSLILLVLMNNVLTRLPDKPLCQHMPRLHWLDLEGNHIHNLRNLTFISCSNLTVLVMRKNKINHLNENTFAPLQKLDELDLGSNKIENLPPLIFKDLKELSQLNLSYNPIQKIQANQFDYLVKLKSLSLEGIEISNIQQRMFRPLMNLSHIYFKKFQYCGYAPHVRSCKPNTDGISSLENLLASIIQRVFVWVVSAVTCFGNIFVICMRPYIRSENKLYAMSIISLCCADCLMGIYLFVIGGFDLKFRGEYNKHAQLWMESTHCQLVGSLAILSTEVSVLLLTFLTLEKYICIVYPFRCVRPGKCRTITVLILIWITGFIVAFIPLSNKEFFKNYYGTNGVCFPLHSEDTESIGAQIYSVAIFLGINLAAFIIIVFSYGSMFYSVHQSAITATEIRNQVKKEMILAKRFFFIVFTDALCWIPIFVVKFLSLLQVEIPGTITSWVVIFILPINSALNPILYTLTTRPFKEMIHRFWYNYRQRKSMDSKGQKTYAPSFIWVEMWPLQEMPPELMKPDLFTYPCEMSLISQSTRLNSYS
Briefly: RXFP1 cAMP assay (hRXFP1 HEK293 cAMP assay, HTRF). It counts as cell-based. Conditions: HEK293 cells stably expressing human RXFP1, 30 min at room temperature, read-out: cAMP hRXFP1 HEK293 Assay EC50. As to the method: RXFP1 Cyclic Adenosine Monophosphate (cAMP) Assays. […] Cells were dissociated and suspended in assay buffer. The assay buffer was HBSS buffer (with calcium and magnesium) containing 20 mM HEPES, 0.05% BSA, and 0.5 mM IBMX. Cells (3000 cells per well, except 1500 cell per well for HEK293 cells stably expressing human RXFP1) were added to 384-well Proxiplates (Perkin-Elmer). Cells were immediately treated with test compounds in DMSO (2% final) at final concentrations in the range of 0.010 nM to 50 μM. Cells were incubated for 30 min at room temperature. The level of intracellular cAMP was determined using the HTRF HiRange cAMP assay reagent kit (Cisbio) according to manufacturer's instructions. Solutions of cryptate conjugated anti-cAMP and d2 fluorophore-labelled cAMP were made in a supplied lysis buffer separately. Upon completion of the reaction, the cells were lysed with equal volume of the d2-cAMP solution and anti-cAMP solution. […] The potency and activity of a compound to […] cAMP production was then determined by fitting to a 4-parametric logistic equation from a plot of cAMP level versus compound concentrations.

As to `COc1ccc(-n2nccc2C(=O)O)cc1C(=O)N[C@@H]1C2CCC(/C2=C/C(F)(F)F)[C@@H]1C(=O)Nc1ccc(F)c(C(F)(F)F)c1` (stereo partly shown) [compound 345], the EC50 was found to be 1400 nM.

As for `COC(=O)N1CCC=C(c2ccc(OC)c(C(=O)N[C@@H]3C4CCC(C4=C(C)C)[C@@H]3C(=O)Nc3ccc(F)c(C(F)(F)F)c3)c2)C1` (stereo partly shown) [Example 134], the EC50 is 1400 nM.

On to `COc1ccc(-c2cc(C(NC(=O)C(F)(F)F)C(=O)O)ccc2F)cc1C(=O)N[C@@H]1C2CCC(/C2=C/C(F)(F)F)[C@@H]1C(=O)Nc1ccc(F)c(C(F)(F)F)c1` (stereo partly shown) [compound 241], for which the EC50 is 3 nM.

As for `COc1ccc(C2=NO[C@H]3CC(CO)C[C@@H]23)cc1C(=O)N[C@H]1[C@@H](C(=O)Nc2ccc(F)c(C(F)(F)F)c2)[C@H]2CC[C@@H]1/C2=C\CCC(F)(F)F` (stereo partly shown) [compound 825], the EC50 worked out at 2.9 nM.

With `COc1ccc(-c2cc(C(N)C(=O)O)ccc2F)cc1C(=O)NC1[C@@H]2CC[C@@H](/C2=C/C2CC2)[C@@H]1C(=O)Nc1ccc(F)c(C(F)(F)F)c1` (stereo partly shown) [compound 969], the EC50 turned out to be 3.6 nM.

Regarding `COc1ccc(N2CC[C@H](O)C2=O)cc1C(=O)N[C@H]1[C@@H](C(=O)Nc2ccc(F)c(C(F)(F)F)c2)[C@H]2CC[C@@H]1/C2=C\C1CC1` [compound 627], the EC50 was determined as 176 nM.

Take `COc1ccc(-c2cccc(C3=NOC4CC(O)CC34)c2)cc1C(=O)N[C@H]1[C@@H](C(=O)Nc2ccc(F)c(C(F)(F)F)c2)[C@H]2CC[C@@H]1/C2=C\C1CC1` (stereo partly shown) [compound 901]: the EC50 came out at 4.5 nM.

Consider `COc1cc(F)c(F)cc1C(=O)N[C@@H]1C2CCC(/C2=C/C2=CCCC2)[C@@H]1C(=O)Nc1ccc(F)c(C(F)(F)F)c1` (stereo partly shown) [compound 38], for which the EC50 is 360 nM.

On to `COc1ccc(C2=NOC3CC(CO)CC23)cc1C(=O)N[C@@H]1C2CCC(/C2=C/C2CC2)[C@@H]1C(=O)Nc1ccc(F)c(C(F)(F)F)c1` (single isomer, unassigned) [compound 433], for which the EC50 was determined as 2 nM.

As for `COc1cc(F)c(F)cc1C(=O)N[C@@H]1C2CCC(/C2=C/C(=O)OC(C)(C)C)[C@@H]1C(=O)Nc1ccc(F)c(C(F)(F)F)c1` (stereo partly shown) [compound 8], the EC50 worked out at 110 nM.

For `COc1ccc(-c2ccc(C(=O)O)cc2)cc1C(=O)N[C@@H]1C2CCC(/C2=C/c2ccccc2)[C@@H]1C(=O)Nc1ccc(F)c(C(F)(F)F)c1` (stereo partly shown) [Example 79], the concentration for a half-maximal effect (EC50) was found to be 11 nM.

On to `COCCOC1(C2CC(c3ccc(OC)c(C(=O)N[C@H]4[C@@H](C(=O)Nc5ccc(F)c(C(F)(F)F)c5)[C@H]5CC[C@@H]4/C5=C\C4CC4)c3)=NO2)CC1` (single isomer, unassigned) [compound 558], for which the EC50 was determined as 44.3 nM.

Regarding `COc1cc(F)c(F)cc1C(=O)N[C@@H]1C2CCC(/C2=C/C(C)(C)O)[C@@H]1C(=O)Nc1ccc(F)c(C(F)(F)F)c1` (stereo partly shown) [Example 65], the EC50 came to 2000 nM.

Regarding `COc1ccc(Br)cc1C(=O)N[C@@H]1C2CCC(/C2=C/c2ccccc2)[C@@H]1C(=O)Nc1ccc(F)c(C(F)(F)F)c1` (stereo partly shown) [Example 77], the EC50 amounted to 330 nM.

With `COc1ccc(C2=NOC3COCC23)cc1C(=O)N[C@H]1[C@@H](C(=O)NCc2c(Cl)cccc2Cl)[C@H]2CC[C@@H]1/C2=C\C1CC1` (stereo partly shown) [compound 570], the EC50 is 62.7 nM.

On to `COc1ccc(C2=NOC3COCC23)cc1C(=O)N[C@H]1[C@@H](C(=O)NCc2ccccc2C2CC2)[C@H]2CC[C@@H]1/C2=C\C1CC1` (stereo partly shown) [compound 606], for which the EC50 came to 121 nM.

For `COc1ccc(-c2cc([C@H](OC(=O)NC3CCC3)C(F)(F)F)ccc2F)cc1C(=O)N[C@@H]1C2CCC(/C2=C/CC(C)C)[C@@H]1C(=O)Nc1ccc(F)c(C(F)(F)F)c1` (stereo partly shown) [compound 926], the EC50 amounted to 2.8 nM.

In the case of `COc1ccc(-c2cc([C@H](O)C(F)(F)F)ccc2F)cc1C(=O)NC1C2CCC(/C2=C/C2CC(F)(F)C2)C1C(=O)Nc1ccc(F)c(C(F)(F)F)c1` (stereo partly shown) [compound 358], the EC50 was 18 nM.

Turning to `COc1ccc(-c2cccc(S(C)(=O)=O)c2)cc1C(=O)N[C@H]1[C@@H](C(=O)Nc2ccc(F)c(C(F)(F)F)c2)[C@H]2CC[C@@H]1/C2=C\C1CC1` [compound 898], the EC50 came out at 3.9 nM.

`COc1c(F)cc(C2=NOC3CC(CO)CC23)cc1C(=O)N[C@H]1[C@@H](C(=O)Nc2ccc(F)c(C(F)(F)F)c2)[C@H]2CC[C@@H]1/C2=C\CCC(F)(F)F` (stereo partly shown) [compound 792]: the EC50 is 1.4 nM.

For the molecule `COc1ccc(C2=NOC3COCC23)cc1C(=O)N[C@H]1[C@@H](C(=O)Nc2ccccc2C)[C@H]2CC[C@@H]1/C2=C\C1CC1` (stereo partly shown) [compound 596], the EC50 is 102 nM.

`COc1ccc(C2=NOC3CC(C)(CO)CC23)cc1C(=O)N[C@H]1[C@@H](C(=O)Nc2ccc(F)c(C(F)(F)F)c2)[C@H]2CC[C@@H]1/C2=C\C1CC1` (stereo partly shown) [compound 736]: the EC50 came out at 2.4 nM.

As to `COc1ccc(-c2cc(C(OC(=O)NCC(F)(F)F)C(F)(F)F)ccc2F)cc1C(=O)N[C@@H]1C2CCC(/C2=C/C2CC2)[C@@H]1C(=O)Nc1ccc(F)c(C(F)(F)F)c1` (stereo partly shown) [compound 220], the EC50 was found to be 8 nM.

As for `COc1ccc(-c2cc([C@H](OC(=O)NC3CC3)C(F)(F)F)ccc2F)cc1C(=O)N[C@H]1[C@@H](C(=O)Nc2ccc(F)c(C(F)(F)F)c2)[C@H]2CC[C@@H]1/C2=C\C1CC(F)(F)C1` [compound 931], the EC50 is 2.5 nM.

In the case of `COc1ccc(C2=NOC(CC(=O)O)C2)cc1C(=O)N[C@@H]1C2CCC(/C2=C/C(F)(F)F)[C@@H]1C(=O)Nc1ccc(F)c(C(F)(F)F)c1` (stereo partly shown) [compound 396], the EC50 was 320 nM.

As for `COc1ccc(-c2cc(C3=NOC(C(=O)O)C3)ccc2F)cc1C(=O)N[C@H]1[C@@H](C(=O)Nc2ccc(F)c(C(F)(F)F)c2)[C@H]2CC[C@@H]1/C2=C\C1CC1` (stereo partly shown) [compound 948], the EC50 turned out to be 8.6 nM.

With `COc1ccc(C2=NOC3CC(C(C)O)CC23)cc1C(=O)N[C@H]1[C@@H](C(=O)Nc2ccc(F)c(C(F)(F)F)c2)[C@H]2CC[C@@H]1/C2=C\C1CC1` (stereo partly shown) [compound 843], the EC50 stood at 0.9 nM.

For `COc1cc(C)c(-c2nnc(CO)s2)cc1C(=O)N[C@H]1[C@@H](C(=O)Nc2ccc(F)c(C(F)(F)F)c2)[C@H]2CC[C@@H]1/C2=C\C1CC1` [compound 808], the EC50 worked out at 4.2 nM.

With `COc1ccc(F)cc1C(=O)N[C@@H]1C2CCC(C2=C(C)C)[C@@H]1C(=O)Nc1ccc(F)c(C(F)(F)F)c1` (stereo partly shown) [compound 111], the EC50 came out at 860 nM.

As for `COc1cc(C)c(C2=NOC3COCC23)cc1C(=O)N[C@H]1[C@@H](C(=O)Nc2ccc(F)c(C(F)(F)F)c2)[C@H]2CC[C@@H]1/C2=C\C1CC1` (stereo partly shown) [compound 532], the EC50 is 22.9 nM.

In the case of `COc1ccc(-c2cc(C(F)(F)F)ccc2F)cc1C(=O)N[C@@H]1C2CCC(/C2=C/C2CC(F)(F)C2)[C@@H]1C(=O)Nc1ccc(F)c(C(F)(F)F)c1` (stereo partly shown) [compound 289], the EC50 was determined as 548 nM.

Consider `COc1ccc(N2CCCCS2(=O)=O)cc1C(=O)N[C@@H]1C2CCC(/C2=C/C2CC2)[C@@H]1C(=O)Nc1ccc(F)c(C(F)(F)F)c1` (stereo partly shown) [compound 373], for which the EC50 is 9 nM.

On to `COc1ccc(C2=NOC3COCC23)cc1C(=O)N[C@H]1[C@@H](C(=O)NCC2CC(F)(F)C2)[C@H]2CC[C@@H]1/C2=C\C1CC1` (stereo partly shown) [compound 621], for which the EC50 was found to be 164 nM.

As for `COc1ccc(-c2cc(C(OC(=O)Nc3ccc(Cl)cc3)C(F)(F)F)ccc2F)cc1C(=O)N[C@@H]1C2CCC(/C2=C/C2CC2)[C@@H]1C(=O)Nc1ccc(F)c(C(F)(F)F)c1` (stereo partly shown) [compound 227], the EC50 was found to be 3 nM.

As to `COc1ccc(-c2cc(C(=O)O)ccc2F)cc1C(=O)N[C@H]1[C@@H](C(=O)Nc2ccc(C)c(C(F)(F)F)c2)[C@H]2CC[C@@H]1/C2=C\C1CC1` [Example 265, 3′-(((1R,2R,3S,4R,Z)-7-(cyclopropylmethylene)-3-((4-methyl-3-(trifluoromethyl)phenyl)carbamoyl)bicyclo[2.2.1]heptan-2-yl)carbamoyl)-6-fluoro-4′-methoxy-[1,1′-biphenyl]-3-carboxylic acid], the EC50 is 5 nM.

Turning to `CCC(NC(=O)[C@@H]1[C@H](NC(=O)c2cc(C3=NOC4COCC34)ccc2OC)[C@@H]2CC[C@H]1/C2=C/C1CC1)c1ccccc1C` (single isomer, unassigned) [compound 652], the EC50 worked out at 278 nM.

As to `COc1ccc(-c2cc(C(NC(=O)C3CCOCC3)C(=O)O)ccc2F)cc1C(=O)N[C@H]1[C@@H](C(=O)N[C@H](C)C2(C)CC2(F)F)[C@H]2CC[C@@H]1/C2=C\C1CC(F)(F)C1` (stereo partly shown) [compound 971], the EC50 turned out to be 2.8 nM.
